“Also recorded” adds a separate entry of the source.
How the values were obtained:
recombinant human leptin = target: T1, recombinant human leptin (Homo sapiens, UniProt P41159); assay: Immuno-precipitation assay of direct binding of human CRP and human leptin; conditions: leptin/CRP mixture and human serum; Western blot with anti-CRP
T1 construct: purchased AF Parlow of NHPP, Torrance, CA
Protocol: To explore a physical interaction between CRP and leptin, the direct binding of these proteins was determined by an immuno-precipitation assay. Rat CRP was purified from fresh rat serum to >95% purity employing a previously established affinity-purification protocol (20). […] The purified human- and rat-CRP proteins were pre-mixed with recombinant human and mouse leptin, respectively, before addition of antibodies specific for human- and mouse-leptin. The concentrations of CRP and leptin in the precipitation reaction were all within the physiological ranges that have been observed in humans or rats (11 & 15). In parallel experiments, recombinant leptin also was pre-mixed with human- or rat-serum to allow for direct interaction prior to immuno-precipitation. The protein precipitates obtained were subjected to Western blot assays using specific anti-CRP antibodies.

[1] = system: tyrosine phosphorylation of STAT3; assay: Leptin-induced tyrosine phosphorylation of STAT3 in HEK293 cells over-expressing OB-Rb in the presence of CRP (Western blot); format: cell-based, human
Protocol: (§1) To determine if the interaction between CRP and leptin dampens the cellular actions of leptin, the ability of leptin to stimulate tyrosine phosphorylation of STAT3 and PI3-kinase activity was assessed in the presence of CRP in vitro. HEK293 cells over-expressing OB-Rb were serum starved for 2 hours before addition of leptin and CRP (CHEMICON or EMD Biosciences). Leptin, in the presence or absence of CRP, was pre-incubated in μ-MEM (with additional 1 mM Ca^2+) for 30 minutes at 37° C. before being applied to the cells. After a 30-minute incubation with leptin, the cells were harvested in lysis buffer (18). The resultant protein extract was subjected to a Western blot analysis using an anti-phospho-STAT3 specific antibody (Cell Signaling, Beverly, Mass.). For studies involving primary hypothalamic neurons, the hypothalamus from rats was surgically isolated immediately after euthanasia, and placed in the DMEM for incubation with leptin in the presence or absence of CRP.

[2] = system: leptin signaling in primary hypothalamic neurons; assay: Phospho-STAT3 and PI3-kinase assays of leptin signaling in primary hypothalamic neurons; format: cell-based, rat
Protocol: as §1

[3] = system: IL-6 induced activation of STAT3; assay: IL-6 induced activation of STAT3 in human primary hepatocytes; format: cell-based; conditions: even higher CRP concentration
From the text: (§2) Human hepatocytes were isolated from donor livers. Briefly, the livers were perfused in a three-step process. A calcium-free buffer supplemented with EGTA is used to break […] junctions, which is followed by the same perfusion buffer without EGTA. Finally, a calcium-containing buffer supplemented with digestive enzymes (collagenase and DNase) was used. Following digestion, parenchymal hepatocytes were isolated by three steps of low-speed centrifugation. Cells with a viability of at least 85% were plated and cultured in hepatocytes maintenance medium (HMM) (Cambrex BioScience, Walkersville, Md.) supplemented with 10% fetal bovine serum (FBS), 0.1 μM dexamethasone, 0.1 μM insulin, and 50 μg/ml gentamicin on collagen-coated tissue culture dishes for 2-4 hours. The cells were subsequently cultured in the above medium without FBS.
(§3) Approximately 24 hours after seeded, the hepatocytes were washed with serum-free HMM supplemented with 0.1 μM dexamethasone and 0.1 μM insulin, and then cultured in the same medium for another 48 hours. Subsequently, the cells were switched to serum-free HMM supplemented with 0.1 μM dexamethasone before stimulated with leptin (NHPP) or rhIL-6 (R&D Systems, Minneapolis, Minn.) for 24 hours or 48 hours. For experiments involving PI3-kinase inhibitors, hepatocytes were pretreated with LY294002 (EMD Biosciences, Calif.) for 1 hour before hormonal stimulation.

ob/ob mice = assay: Intracerebralventricular (i.c.v.) injection of human CRP and leptin in ob/ob mice, food intake and body weight; format: in vivo, mouse; conditions: ob/ob mice
CRP = assay: Leptin's effect on CRP secretion and expression in human hepatocytes (Western, real-time RT-PCR); format: cell-based
From the text: as §2, §3
Hepatocytes were isolated and treated as described in Example 4. Culture medium was centrifuged to remove detached cells and then heated at 95° C. for 5 minutes in SDS-sample buffer (Boston Bioproducts, Mass.). After separation on 10% SDS polyacrylamide gels, proteins were electro-transferred overnight to nitrocellulose membranes. Pre-blocked using 5% non-fat milk in PBS with 0.5% Tween 20, the membranes were incubated with appropriate primary antibody for 2 hours at room temperature, washed and incubated for 1 hour with a corresponding […] at room temperature. […]
CRP mRNA expression was measured by quantitative real-time RT-PCR. […]

T1 sequence (P41159 22-167): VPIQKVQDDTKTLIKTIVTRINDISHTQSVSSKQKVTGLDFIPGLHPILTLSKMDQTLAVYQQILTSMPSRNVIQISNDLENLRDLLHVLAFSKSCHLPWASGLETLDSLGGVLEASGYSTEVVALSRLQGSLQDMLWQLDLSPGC

Substance	co-precipitation of CRP with anti-human leptin antibody (recombinant human leptin)	calcium dependence of attenuation of leptin signaling ([1]; excess EGTA added to the medium)	effect of CRP on human leptin-induced tyrosine phosphorylation of STAT3 ([1]; HEK293 OB-Rb)	effect of CRP on human leptin-induced tyrosine phosphorylation of STAT3 ([1]; HEK293 OB-Rb, listed as Human CRP)	effect of CRP on murine leptin-induced tyrosine phosphorylation of STAT3 ([1]; murine/mouse leptin, HEK293 OB-Rb)	effect on leptin signaling (phospho-STAT3, PI3-kinase) [2]	effect on IL-6 induced activation of STAT3 [3]	effect of i.c.v. human CRP on satiety and weight-reducing effects induced by mouse leptin (ob/ob mice)	effect on CRP gene expression, short treatment (CRP; 6-8 hours)	effect on secreted CRP in the culture medium (CRP; human hepatocytes, physiological leptin concentrations, 24 hours)	effect on human CRP mRNA expression (CRP; real-time PCR)
human CRP: human C-reactive protein, purified preparation from a commercial source	could pull down human CRP	requires the presence of calcium ions	attenuating effects; also recorded: caused the reduction of leptin-stimulated STAT3 activation; also recorded: attenuate	suppressed the activation of STAT3; also recorded: suppresses activation of STAT3	does not have attenuation effect; also recorded: unable to block	specifically inhibited leptin signaling	did not suppress	did not influence			
human leptin: human recombinant leptin									did not influence CRP gene expression	dose-dependent positive effect	dosage-dependent effect
